{
  "source": "patent US8673908B2",
  "about": "“Kynurenine production inhibitor” (Kyowa Hakko Kirin Co., Ltd., priority 2008, dated 2014)",
  "system": "kynurenine production in IFN-γ-treated KATO-III cells",
  "test": "Inhibitory activity on kynurenine production (Test Example 1)",
  "assay_type": "cell-based",
  "details": "Homo sapiens, IFN-γ treatment, culture for 96 hours, read-out: IC50 value, inhibition of kynurenine production",
  "method_in_brief": "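Read-out is absorbance at 480 nm of medium treated with trichloroacetic acid, then p-dimethylaminobenzaldehyde, to quantify kynurenine. DMSO-only wells with and without IFN-γ serve as references. Cells were KATO-III, 2,000 per well, 96 h at 37 °C/5% CO2 with compound (DMSO ≤0.1%) and IFN-γ at 31.25 ng/mL in the added suspension.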",
  "data": [
    {"smiles": "CCCS(=O)(=O)Nc1nc2ccccc2nc1OC(C(F)(F)F)C1(C)CCN(S(C)(=O)=O)CC1", "note": "(stereo not shown) [Compound 357, N-{3-[2,2,2-trifluoro-1-(1-methanesulfonyl-4-methylpiperidin-4-yl)ethoxy]quinoxalin-2-yl}propane-1-sulfonamide]", "values": [
      {"measurement": "IC50", "result": "< 1", "unit": "µM"}
    ]},
    {"smiles": "CCCNS(=O)(=O)Nc1nc2ccccc2nc1OC(c1cccnc1)C(C)C", "note": "(stereo not shown) [Compound 213, N-{3-[2-methyl-1-(pyridin-3-yl)propoxy]quinoxalin-2-yl}-N′-propyl-sulfuric diamide]", "values": [
      {"measurement": "IC50", "result": "< 1", "unit": "µM"}
    ]},
    {"smiles": "CCCS(=O)(=O)Nc1nc2ccccc2nc1OC(C(F)(F)F)C1(O)CCOCC1", "note": "(stereo not shown) [Compound 352, N-{3-[2,2,2-trifluoro-1-(4-hydroxytetrahydro-2H-pyran-4-yl)ethoxy]quinoxalin-2-yl}propane-1-sulfonamide]", "values": [
      {"measurement": "IC50", "result": "1 to 10", "unit": "µM"}
    ]},
    {"smiles": "CC(C)(C#N)C(Oc1nc2ccccc2nc1NS(=O)(=O)c1ccccc1Cl)c1cccnc1", "note": "(stereo not shown) [Compound 67, 2-chloro-N-{3-[2-cyano-2-methyl-1-(pyridin-3-yl)propoxy]-quinoxalin-2-yl}benzenesulfonamide]", "values": [
      {"measurement": "IC50", "result": "< 1", "unit": "µM"}
    ]},
    {"smiles": "CCCS(=O)(=O)Nc1nc2ccccc2nc1OC(C1CCN(C(=O)C2CC2)CC1)C(F)(F)F", "note": "(stereo not shown) [Compound 341, N-{3-[2,2,2-trifluoro-1-(1-cyclopropanecarbonylpiperidin-4-yl)ethoxy]quinoxalin-2-yl}propane-1-sulfonamide]", "values": [
      {"measurement": "IC50", "result": "< 1", "unit": "µM"}
    ]},
    {"smiles": "CCNS(=O)(=O)Nc1nc2ccccc2nc1OC(c1cccnc1)C(F)(F)F", "note": "(stereo not shown) [Compound 195, N-ethyl-N′-{3-[2,2,2-trifluoro-1-(pyridin-3-yl)ethoxy]-quinoxalin-2-yl}sulfuric diamide]", "values": [
      {"measurement": "IC50", "result": "< 1", "unit": "µM"}
    ]},
    {"smiles": "O=S(=O)(Nc1nc2ccccc2nc1SCc1ccccc1)c1ccccc1Cl", "note": "[Compound 221, N-[3-(benzylthio)quinoxalin-2-yl]-2-chlorobenzenesulfonamide]", "values": [
      {"measurement": "IC50", "result": "1 to 10", "unit": "µM"}
    ]},
    {"smiles": "CCCS(=O)(=O)Nc1nc2ccccc2nc1OC(c1ccc(CN(C)C)cc1)C(F)(F)F", "note": "(stereo not shown) [Compound 197, N-{3-[1-(4-((dimethylamino)methyl)phenyl)-2,2,2-trifluoroethoxy]quinoxalin-2-yl}propane-1-sulfonamide]", "values": [
      {"measurement": "IC50", "result": "< 1", "unit": "µM"}
    ]},
    {"smiles": "Cc1cccc2nc(NS(=O)(=O)c3ccccc3Cl)c(OC(c3cccnc3)C(F)(F)F)nc12", "note": "(stereo not shown) [Compound 266, 2-chloro-N-{5-methyl-3-[2,2,2-trifluoro-1-(pyridin-3-yl)-ethoxy]quinoxalin-2-yl}benzenesulfonamide]", "values": [
      {"measurement": "IC50", "result": "< 1", "unit": "µM"}
    ]},
    {"smiles": "COc1ccc(COc2nc3cccnc3nc2NS(=O)(=O)c2cccc(Cl)c2Cl)cc1", "note": "[Compound 5]", "values": [
      {"measurement": "IC50", "result": "1 to 10", "unit": "µM"}
    ]},
    {"smiles": "CC1(C(Oc2nc3ccccc3nc2NS(=O)(=O)c2ccccc2Cl)C(F)(F)F)CCOCC1", "note": "(stereo not shown) [Compound 121, 2-chloro-N-{3-[2,2,2-trifluoro-1-(4-methyltetrahydro-2H-pyran-4-yl]ethoxy}quinoxalin-2-yl)benzenesulfonamide]", "values": [
      {"measurement": "IC50", "result": "< 1", "unit": "µM"}
    ]},
    {"smiles": "O=S(=O)(Nc1nc2ccccc2nc1OC(c1cccnc1)C(F)(F)F)c1ccccc1", "note": "(stereo not shown) [Compound 137, N-{3-[2,2,2-trifluoro-1-(pyridin-3-yl)ethoxy]quinoxalin-2-yl}benzenesulfonamide]", "values": [
      {"measurement": "IC50", "result": "< 1", "unit": "µM"}
    ]},
    {"smiles": "O=S(=O)(Nc1nc2ccccc2nc1OC(c1ccccc1)C(F)(F)F)c1ccccc1Cl", "note": "(stereo not shown) [Compound 44, 2-chloro-N-[3-(2,2,2-trifluoro-1-phenylethoxy)quinoxalin-2-yl]benzenesulfonamide]", "values": [
      {"measurement": "IC50", "result": "< 1", "unit": "µM"}
    ]},
    {"smiles": "Cc1nn(C)c(Cl)c1S(=O)(=O)Nc1nc2ccccc2nc1OC(c1cc2ccccc2n1C)C(F)(F)F", "note": "(stereo not shown) [Compound 129, 5-chloro-1,3-dimethyl-N-{3-[2,2,2-trifluoro-1-(1-methyl-1H-indol-2-yl)ethoxy]quinoxalin-2-yl}-1H-pyrazole-4-sulfonamide]", "values": [
      {"measurement": "IC50", "result": "< 1", "unit": "µM"}
    ]},
    {"smiles": "CCCS(=O)(=O)Nc1nc2ccccc2nc1OC(c1cncc(Cl)c1)C(F)(F)F", "note": "(stereo not shown) [Compound 335, N-{3-[2,2,2-trifluoro-1-(5-chloropyridin-3-yl)ethoxy]-quinoxalin-2-yl}propane-1-sulfonamide]", "values": [
      {"measurement": "IC50", "result": "< 1", "unit": "µM"}
    ]},
    {"smiles": "CCCNS(=O)(=O)Nc1nc2ccccc2nc1OC(c1ccc(C)[n+]([O-])c1)C(F)(F)F", "note": "(stereo not shown) [Compound 284, 2-methyl-5-{2,2,2-trifluoro-1-[3-(N-propylsulfamoylamino)-quinoxalin-2-yloxy]ethyl}pyridine 1-oxide]", "values": [
      {"measurement": "IC50", "result": "< 1", "unit": "µM"}
    ]},
    {"smiles": "O=S(=O)(Cc1ccccc1Cl)Nc1nc2ccccc2nc1OC(c1cccnc1)C(F)(F)F", "note": "(stereo not shown) [Compound 173, 1-(2-chlorophenyl)-N-{3-[2,2,2-trifluoro-1-(pyridin-3-yl)-ethoxy]quinoxalin-2-yl}methanesulfonamide]", "values": [
      {"measurement": "IC50", "result": "< 1", "unit": "µM"}
    ]},
    {"smiles": "CCCS(=O)(=O)Nc1nc2ccccc2nc1OC(C1CCN(C(=O)CC)CC1)C(F)(F)F", "note": "(stereo not shown) [Compound 340, N-{3-[2,2,2-trifluoro-1-(1-propionylpiperidin-4-yl)ethoxy]-quinoxalin-2-yl}propane-1-sulfonamide]", "values": [
      {"measurement": "IC50", "result": "< 1", "unit": "µM"}
    ]},
    {"smiles": "O=S(=O)(Nc1nc2ccccc2nc1OCc1ccncc1)c1cccc(Cl)c1Cl", "note": "[Compound 26, 2,3-dichloro-N-{3-[(pyridin-4-yl)methoxy]quinoxalin-2-yl}-benzenesulfonamide]", "values": [
      {"measurement": "IC50", "result": "1 to 10", "unit": "µM"}
    ]},
    {"smiles": "CC(CCOc1nc2ccccc2nc1NS(=O)(=O)c1ccccc1Cl)c1cccnc1", "note": "(stereo not shown) [Compound 177, 2-chloro-N-{3-[3-(pyridin-3-yl)butoxy]quinoxalin-2-yl}-benzenesulfonamide]", "values": [
      {"measurement": "IC50", "result": "< 1", "unit": "µM"}
    ]},
    {"smiles": "Cc1ncc(C(Oc2nc3ccccc3nc2NS(=O)(=O)CC2CC2)C(F)(F)F)s1", "note": "(stereo not shown) [Compound 306, 1-cyclopropyl-N-{3-[2,2,2-trifluoro-1-(2-methylthiazol-5-yl)ethoxy]quinoxalin-2-yl}methanesulfonamide]", "values": [
      {"measurement": "IC50", "result": "< 1", "unit": "µM"}
    ]},
    {"smiles": "CC1(COc2nc3ccccc3nc2NS(=O)(=O)c2ccccc2Cl)CCOCC1", "note": "[Compound 246, 2-chloro-N-{3-[(4-methyltetrahydro-2H-pyran-4-yl)methoxy]-quinoxalin-2-yl}benzenesulfonamide]", "values": [
      {"measurement": "IC50", "result": "< 1", "unit": "µM"}
    ]},
    {"smiles": "CCCS(=O)(=O)Nc1nc2ccccc2nc1OC(C(F)(F)F)C1(C)CCN(C(C)=O)CC1", "note": "(stereo not shown) [Compound 356, N-{3-[2,2,2-trifluoro-1-(1-acetyl-4-methylpiperidin-4-yl)-ethoxy]quinoxalin-2-yl}propane-1-sulfonamide]", "values": [
      {"measurement": "IC50", "result": "< 1", "unit": "µM"}
    ]},
    {"smiles": "Cc1noc(C)c1S(=O)(=O)Nc1nc2ccccc2nc1OC(c1ccc(CN(C)C)cc1)C(F)(F)F", "note": "(stereo not shown) [Compound 204, N-{3-[1-(4-((dimethylamino)methyl)phenyl)-2,2,2-trifluoroethoxy]quinoxalin-2-yl}-3,5-dimethylisoxazole-4-sulfonamide]", "values": [
      {"measurement": "IC50", "result": "< 1", "unit": "µM"}
    ]},
    {"smiles": "O=S(=O)(Nc1nc2ccccc2nc1OCc1cccnc1)c1cccc(Cl)c1Cl", "note": "[Compound 6, 2,3-dichloro-N-{3-[(pyridin-3-yl)methoxy]quinoxalin-2-yl}-benzenesulfonamide]", "values": [
      {"measurement": "IC50", "result": "1 to 10", "unit": "µM"}
    ]},
    {"smiles": "CC(C)C(Oc1nc2ccccc2nc1NS(=O)(=O)c1cccc(Cl)c1Cl)C(C)C", "note": "[Compound 226, 2,3-dichloro-N-[3-(2,4-dimethylpentan-3-yloxy)quinoxalin-2-yl]benzenesulfonamide]", "values": [
      {"measurement": "IC50", "result": "< 1", "unit": "µM"}
    ]},
    {"smiles": "O=S(=O)(Nc1nc2ccccc2nc1OC(c1cccnc1)C(F)(F)F)c1cccnc1", "note": "(stereo not shown) [Compound 139, N-{3-[2,2,2-trifluoro-1-(pyridin-3-yl)ethoxy]quinoxalin-2-yl}pyridine-3-sulfonamide]", "values": [
      {"measurement": "IC50", "result": "< 1", "unit": "µM"}
    ]},
    {"smiles": "Cn1cncc1C(Oc1nc2ccccc2nc1NS(=O)(=O)c1cccc(Cl)c1Cl)C(F)(F)F", "note": "(stereo not shown) [Compound 97, 2,3-dichloro-N-{3-[2,2,2-trifluoro-1-(1-methyl-1H-imidazol-5-yl)ethoxy]quinoxalin-2-yl}benzenesulfonamide]", "values": [
      {"measurement": "IC50", "result": "< 1", "unit": "µM"}
    ]}
  ]
}
